Consider 1 compound from patent publication US9440930B2, “Substituted bicyclic dihydropyrimidinones and their use as inhibitors of neutrophil elastase activity” (Boehringer Ingelheim International GmbH, priority 2014, dated 2016).

The target in data set [1] is T1, Human neutrophil elastase (Homo sapiens, UniProt P08246).
T1 construct: purchased Calbiochem 324681
T1 sequence (P08246 30-247 limits assumed): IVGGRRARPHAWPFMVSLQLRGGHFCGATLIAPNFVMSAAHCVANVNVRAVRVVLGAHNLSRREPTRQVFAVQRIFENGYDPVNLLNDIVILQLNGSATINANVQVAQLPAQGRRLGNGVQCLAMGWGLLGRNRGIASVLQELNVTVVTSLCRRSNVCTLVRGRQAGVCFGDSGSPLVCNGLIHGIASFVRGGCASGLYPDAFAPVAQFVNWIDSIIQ
Description: Human Neutrophil Elastase Assay. The format is biochemical. Particulars: substrate MeOSuc-Ala-Ala-Pro-Val-AMC 250 μM, pH 7.5, room temperature. An excerpt:
Human Neutrophil Elastase Assay

Data set [2] addresses hERG (human ether-a-go-go-related gene) potassium channel (Homo sapiens, UniProt Q12809). Description: hERG inhibition. Type of data set: cell-based. (In general: The hERG channel carries a current that helps repolarise heart muscle cells.)
For a further data set, the target named is hERG potassium channel (Homo sapiens, UniProt Q12809). Kind of data set: hERG inhibition. Type of data set: cell-based. Particulars: human; at 10 μM.
The nature of data set [3]: Drug transport across human Caco-2 cells. The format is in vitro ADME. Particulars: pH 7.2, 37° C. An excerpt:
Assay for Determination of Drug Transport Across Human Caco-2 Cells
The assay provides information on the potential of a compound to pass the cell membrane, on the extent of oral absorption as well as on whether the compound is actively transported by uptake and/or efflux transporters. For the measurement of permeability across polarized, confluent human cancer colon carcinoma cells 2 (Caco-2) cell monolayers grown on permeable filter supports are used as the in vitro absorption model.
Apparent permeability coefficients (PE) of the compounds across the Caco-2 monolayers are measured (pH 7.2, 37° C.) in apical-to-basal (AB) (absorptive) and basal-to-apical (BA) (secretory) transport direction. AB permeability (PEAB) represents drug absorption from the intestine into the blood and BA permeability (PEBA) drug secretion from the blood back into the intestine via both passive permeability as well as active transport mechanisms mediated by efflux and uptake transporters that are expressed on the Caco-2 cells. The compounds are assigned to permeability/absorption classes by comparison of the AB permeabilities with the AB permeabilities of reference compounds with known in vitro permeability and oral absorption in the human. Identical or similar permeabilities in both transport directions indicate passive permeation, vectorial permeability points to additional active transport mechanisms. […] Active transport is concentration-dependently saturable.
Caco-2 cells (1-2*10^5 cells/cm^2 area) are seeded on filter inserts (Costar transwell polycarbonate or PET filters, 0.4 μm pore size) and cultured (DMEM) for 10 to 25 days. Compounds are dissolved in appropriate solvent (like DMSO, 1-20 min stock solutions). Stock solutions are diluted with HTP-4 buffer (128.13 min NaCl, 5.36 min KCl, 1 mM MgSO4, 1.8 min CaCl2, 4.17 min NaHCO3, 1.19 min Na2HPO4×7H2O, 0.41 mM NaH2PO4×H2O, 15 min HEPES, 20 min glucose, pH 7.2) to prepare the transport solutions (typically 10 μM compound, final DMSO<=0.5%). The transport solution (TL) is applied to the apical or basolateral donor side for measuring A-B or B-A permeability (3 filter replicates), respectively. The receiver side contains HTP-4 buffer supplemented with 2% BSA. Samples are collected at the start and end of experiment from the donor and at various time intervals for up to 2 hours also from the receiver side for concentration measurement by LC-MS/MS or scintillation counting. Sampled receiver volumes are replaced with fresh receiver solution.
Background: Caco-2 cells form a polarised layer with tight junctions and transporters.

Some results are limits rather than exact numbers.

hERG (human ether-a-go-go-related gene) potassium channel, sequence (Q12809 whole entry): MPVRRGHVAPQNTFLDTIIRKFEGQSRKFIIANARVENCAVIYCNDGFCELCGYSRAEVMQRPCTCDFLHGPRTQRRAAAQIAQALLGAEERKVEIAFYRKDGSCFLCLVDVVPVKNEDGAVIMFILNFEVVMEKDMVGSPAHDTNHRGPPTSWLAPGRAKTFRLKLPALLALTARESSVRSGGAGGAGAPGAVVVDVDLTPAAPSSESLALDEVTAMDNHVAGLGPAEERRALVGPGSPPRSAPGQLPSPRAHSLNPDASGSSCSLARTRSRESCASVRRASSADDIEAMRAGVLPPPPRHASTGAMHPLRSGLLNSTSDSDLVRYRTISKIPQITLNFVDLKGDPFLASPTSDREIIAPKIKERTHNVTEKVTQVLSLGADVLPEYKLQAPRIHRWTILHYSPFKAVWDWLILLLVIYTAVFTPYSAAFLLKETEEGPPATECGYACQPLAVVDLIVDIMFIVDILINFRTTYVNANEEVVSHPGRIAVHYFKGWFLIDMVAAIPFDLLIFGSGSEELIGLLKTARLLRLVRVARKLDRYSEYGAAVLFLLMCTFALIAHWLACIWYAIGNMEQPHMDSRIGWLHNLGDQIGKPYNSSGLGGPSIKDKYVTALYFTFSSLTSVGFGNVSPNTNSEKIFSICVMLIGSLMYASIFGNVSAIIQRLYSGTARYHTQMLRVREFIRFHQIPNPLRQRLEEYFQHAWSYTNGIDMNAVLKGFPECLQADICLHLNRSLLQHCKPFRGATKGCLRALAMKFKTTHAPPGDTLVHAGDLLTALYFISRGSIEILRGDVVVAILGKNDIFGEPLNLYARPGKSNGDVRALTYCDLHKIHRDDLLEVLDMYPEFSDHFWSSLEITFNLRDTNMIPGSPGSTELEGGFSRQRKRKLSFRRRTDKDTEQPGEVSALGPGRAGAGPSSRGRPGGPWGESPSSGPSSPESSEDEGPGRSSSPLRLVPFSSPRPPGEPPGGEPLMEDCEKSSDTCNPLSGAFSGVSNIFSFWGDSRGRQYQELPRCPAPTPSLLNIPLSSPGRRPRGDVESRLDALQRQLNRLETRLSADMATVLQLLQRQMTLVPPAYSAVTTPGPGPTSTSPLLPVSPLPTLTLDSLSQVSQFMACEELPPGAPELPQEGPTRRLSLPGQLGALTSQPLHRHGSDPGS
hERG potassium channel, sequence (Q12809 whole entry): as above

On to `CN1C(=O)N(c2cccc(C(F)(F)F)c2)C2=C(C(=O)CCC2)[C@H]1c1ccc(C#N)cc1[S+](C)[O-]` (single isomer, unassigned) [Example 2.2A, 3-Methanesulfinyl-4-[3-methyl-2,5-dioxo-1-(3-trifluoromethyl-phenyl)-1,2,3,4,5,6,7,8-octahydro-quinazolin-4-yl]-benzonitrile], for which the results for the IC50 in data set [1] and in data set [2] were less than 0.001 µM and more than 30 µM, respectively. Also, 10 µM produced 9% inhibition at hERG potassium channel. For the same compound, in data set [3] (apical-to-basal, read-out: PEAB), the Papp A→B at 10 µM is 19 ×10⁻⁶ cm/s. Besides, the Papp B→A at 10 µM in data set [3] (basal-to-apical, read-out: PEBA) came out at 97 ×10⁻⁶ cm/s.
